From US11154546B2, “Methods and compositions for treatment of mitochondrial toxicity” (Epirium Bio Inc., priority 2011, dated 2021)

Columns and labels:
isolated mitochondria = assay: calcium induced mitochondrial damage (swelling, OD at 535 nm) in isolated heart mitochondria; type: biochemical, rat; settings: 10^−14-10^−12 M; 33 μM CaCl2
Procedure: FIG. 6 depicts the protective effect of epicatechin on calcium induced mitochondrial damage (as measured by mitochondrial swelling). Swelling was evaluated by monitoring changes in optical density (OD, light absorbance) as follows: Hearts from male rats were excised and weighed. Left ventricles were homogenized (0.1 g/mL) in solution A (Sucrose 2M, EDTA 0.01M, Hepes 0.5M: pH=7.4), centrifuged 10 min (800×g), 4° C., the supernatant was centrifuged 10 min (8000×g), 4° C. and the pellet was re-suspended in solution B (Sucrose 2M, EDTA 0.01M, Tris 0.5M-H2PO4-50 mM: pH=7.4) and centrifuged 10 min (10000×g), 4° C. […] Pellet was re-suspended in 10 mL of solution C (Sucrose 2M, EDTA 0.01M, Tris 0.5M, H2PO4 50 mM, Succinate 1M: pH=7.4).

[1] = tested on: mitochondrial permeability transition pores; settings: cited from earlier work
[2] = tested on: differentiated human skeletal muscle cells; assay: mitochondrial respiration (oxygen consumption rate, Seahorse apparatus) in differentiated human skeletal muscle cells; type: cell-based; settings: cells treated with 30 nM epicatechin for 48 h
Procedure: FIG. 1 depicts epicatechin stimulation on-demand mitochondrial respiration in human cells. […] Rates of respiration are reported as oxygen consumption rates (OCR) and were measured using a Seahorse apparatus.
FIG. 2 depicts blockade of epicatechin's stimulatory effect by an inhibitor of pyruvate transport.

[3] = tested on: mitochondrial oxidative phosphorylation (OXPHOS) related complexes; assay: Western blot of OXPHOS complexes in skeletal muscle of prednisolone-treated rats; type: in vivo; settings: prednisolone 10 mg/kg/day SC, 10 days, rat quadriceps
Procedure: FIG. 3 depicts the effects of the administration of 10 consecutive days of prednisolone (10 mg/kg/day, SC) on rat skeletal muscle mitochondrial oxidative phosphorylation (OXPHOS) related complexes levels as assessed by Western blots. Three groups of male rats were analyzed: 1) control group (saline solution, SC and saline solution by gavage BID); 2) prednisolone (10 mg/kg/day, SC and saline solution by gavage BID); and 3) prednisolone (10 mg/kg/day, SC) plus epicatechin (Epi; 1 mg/kg/day by gavage BID). Western blots of isolated skeletal muscle (quadriceps) from each group were probed with a cocktail of monoclonal antibodies to electron transport chain proteins (OXPHOS) (20 KDa subunit of complex I, 26 KDa subunit of complex IV, subunit core 2 of complex III, 30 KDa complex II and ATP synthase 54 Kda complex V). […]
Western blots were performed as follows: Approximately 50 mg of the heart and quadriceps femoris muscles were homogenized with a polytron in 500 μl lysis buffer (1% triton X-100, 20 mM Tris, 140 mM NaCl, 2 mM EDTA, and 0.1% SDS) with protease and phosphatase inhibitor cocktails (P2714 and P2850, Sigma-Aldrich, St. Louis, Mo.) supplemented with 0.15 mM PMSF, 5 mM Na3VO4 and 3 mM NaF. […] The total protein content was measured in the supernatant using the Bradford method. […] The band intensities were digitally quantified using ImageJ software.

[4] = fasting glucose levels in prednisolone-treated rats; type: in vivo, rat; settings: prednisolone 10 mg/kg/day SC, 10 days
Procedure: Three groups of male rats were analyzed: 1) control group (saline solution, SC and saline solution by gavage BID); 2) prednisolone (10 mg/kg/day, SC and saline solution by gavage BID) and; 3) prednisolone (10 mg/kg/day, SC) plus epicatechin (Epi; 1 mg/kg/day by gavage BID). Blood samples were obtained from animals on each group after 12 hours fasting, Glucose levels were determined spectrophotometrically with an autokit glucose (Wako) kit.

[5] = oral glucose tolerance test in prednisolone-treated rats; type: in vivo, rat; settings: prednisolone 10 mg/kg/day SC, 10 days; oral glucose 1.25 g/Kg, 0-4 hours
Procedure: Blood samples were obtained from animals on each group from 0-4 hours after an oral glucose charge (1.25 g/Kg). Glucose levels were determined spectrophotometrically with an autokit glucose (Wako) kit.

O=C(NCCO[N+](=O)[O-])c1cccnc1 [Nicorandil, N-[2-(Nitroxy)ethyl]-3-pyridinecarboxamide]
calcium induced mitochondrial swelling (isolated mitochondria): blocks in a dose dependent manner | mitochondrial pore formation in response to ischemia [1]: prevent mitochondrial pore formation

N#CC(=Cc1ccccc1)C(=O)O [a-cyannocinnamate]
blockade of epicatechin-stimulated maximal rates of respiration [2]: blocked

OCC1OC(O)CC(O)C1O (stereo not shown) [deoxyglucose]
blockade of epicatechin-stimulated maximal rates of respiration [2]: not by deoxyglucose

C[C@]12C=CC(=O)C=C1CC[C@@H]1[C@@H]2[C@@H](O)C[C@@]2(C)[C@H]1CC[C@]2(O)C(=O)CO [prednisolone]
skeletal muscle mitochondrial complex (I-V) levels [3]: reduced | glucose levels after 12 hours fasting [4]: significant hyperglycemia | oral glucose tolerance [5]: Abnormal glucose tolerance
